We go through six compounds from US20050085644A1, “Novel 3-aryl-2,5-dihydroxy-1,4-benzoquinone derivatives, their preparation method and pharmaceutical compositions containing same” (priority 2002, published 2005).

For data set [1], the system named is ob/ob C57BL/6 mice. The data set is described as follows: Chronic in vivo study in ob/ob mice. The following applies: female ob/ob C57BL/6 mice, 9 days, 10 or 20 mg/kg po. As to the method: 11-week-old female ob/ob C57BL/6 mice randomly selected in terms of basal glycaemia from animals that have been fed are treated for 9 days with the test compound at 10 or 20 mg/kg po and compared with a control group receiving 1% HEC. Biological balance (glycaemia, insulinaemia, triglyceridaemia) is reached on the 10th day with the animals that have been fed, the final treatment having taken place the day before. The results are expressed as percentage variations in relation to D0 (glycaemia, body weight) compared with the control group.

For data set [2], the system named is protein kinase B. The data set is described as follows: Activation (phosphorylation) of protein kinase B in CHO-HIR cells, immunoblotting. Format: cell-based, hamster. The conditions noted are these: 10^−5M, two hours at 37° C. The procedure: (§1) The pharmacological effect of the compounds of the invention on cellular signaling is evaluated in vitro using hamster ovary cells transfected with human insulin receptors (CHO-HIR). The techniques employed are from TAVARE and DENTON (1988, BIOCHEM. J., 250, 509-519) and TAVARE et al. (1988, Biochem. J., 253, 783-788) modified by ISSAD et al. (1991, Biochem. J., 275, 15-21) and COMBETTES-SOUVERAIN et al. (1997, Diabetologia, 40, 533-540).
(§2) The products are studied at 10^−5M under incubation for two hours at 37° C. with CHO-HIR in culture. A negative control (solvent) and a positive control (insulin 50 nM, 5 min incubation) are used in parallel in the same test. […]
(§3) The phosphorylation of the insulin receptors (IR) and the phosphorylation of protein kinase B are evaluated by immunoblotting as follows.
Similarly, the state of phosphorylation of protein kinase B following electrophoresis of the samples on 10% polyacrylamide gel is determined by chemiluminescence after immunoblotting with anti-phospho protein kinase B antibodies (phospho Akt(Ser473) antibody, ref 9271, Cell Signaling) and then related to the total protein kinase B quantity (AKT antibody, ref 9272, Cell signaling).
The phosphorylation induced by the compounds of the invention is expressed as a percentage in relation to 50 nM insulin, fixed at 100% activation.
(In western blotting, separated proteins are transferred to a membrane and probed.)

Data set [3] addresses T1, human insulin receptors (Homo sapiens, UniProt P06213).
T1 construct: expressed in transfected cells; host or cells: CHO-HIR (hamster ovary cells)
The data set is described as follows: Activation (phosphorylation) of insulin receptors in CHO-HIR cells, immunoblotting. Format: cell-based. The conditions noted are these: 2 h, 10^−5M, two hours at 37° C., read-out: activation percentage for insulin receptors (phosphorylation in relation to 50 nM insulin fixed at 100%). The procedure: as §1, §2, §3
The IR are extracted over wheatgerm lectin; the samples are then subjected to electrophoresis on 7.5% polyacrylamide gel and subjected to an electric transfer onto PDVF membrane in a semi-dry system. […] After dehydridisation and then rehydridisation with an anit-insulin receptor β subunit antibody (βsubunit, ref 06492, Upstate Biotechnology), the total IR quantity deposited on blot is evaluated by chemiluminescence and the phosphorylation rate of the receptors is related to the total receptor quantity deposited. […]

T1 sequence (P06213 28-758 limits assumed): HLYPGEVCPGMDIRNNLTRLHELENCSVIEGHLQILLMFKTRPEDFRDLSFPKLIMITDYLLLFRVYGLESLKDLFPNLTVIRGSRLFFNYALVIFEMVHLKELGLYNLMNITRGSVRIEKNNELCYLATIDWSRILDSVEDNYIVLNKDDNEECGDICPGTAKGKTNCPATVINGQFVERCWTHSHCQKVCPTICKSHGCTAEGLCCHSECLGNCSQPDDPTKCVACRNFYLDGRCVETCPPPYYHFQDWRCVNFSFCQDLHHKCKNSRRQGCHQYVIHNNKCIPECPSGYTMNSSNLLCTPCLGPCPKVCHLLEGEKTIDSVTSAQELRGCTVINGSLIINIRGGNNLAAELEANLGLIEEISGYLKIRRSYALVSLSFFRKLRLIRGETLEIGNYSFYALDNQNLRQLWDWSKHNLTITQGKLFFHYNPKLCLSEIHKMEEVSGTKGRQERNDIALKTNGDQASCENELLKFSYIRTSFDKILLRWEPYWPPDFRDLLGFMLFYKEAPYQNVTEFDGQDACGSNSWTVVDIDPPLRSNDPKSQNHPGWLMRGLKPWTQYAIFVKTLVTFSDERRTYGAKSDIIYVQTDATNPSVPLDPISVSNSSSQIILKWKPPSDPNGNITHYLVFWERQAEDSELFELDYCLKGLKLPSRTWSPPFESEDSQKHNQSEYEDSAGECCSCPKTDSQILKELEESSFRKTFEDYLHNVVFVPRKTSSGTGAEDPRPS

Turning to `O=C1C(O)=C(c2ccccc2)C(=O)C(O)=C1/C=C/c1ccccc1` [Example 1, 2,5-Dihydroxy-3-phenyl-6-[(E)-2-phenylethenyl]-1,4-benzoquinone], the melting point was 259 to 260 °C. Moreover, in data set [1] (fed, 10th day), the “triglycerides, reduction compared with the control” value is reported as −37.8%.
The compound `O=C1C(O)=C(c2ccccc2)C(=O)C(O)=C1/C=C/c1ccc(Br)cc1` [Example 3, 2,5-Dihydroxy-3-phenyl-6-[(E)-2-(4-bromophenyl)-ethenyl]-1,4-benzoquinone] had a melting point of 240 to 241 °C.
For the compound `C/C(=C\c1ccccc1)C1=C(O)C(=O)C(c2ccccc2)=C(O)C1=O` [Example 10, 2,5-Dihydroxy-3-[(E)-1-methyl-2-phenylethenyl]-6-phenyl-1,4-benzoquinone], the “activation percentage for protein kinase B (phosphorylation in relation to 50 nM insulin fixed at 100%)” value in data set [2] came out at 91%.
On to `O=C1C(O)=C(c2ccc3ccccc3c2)C(=O)C(O)=C1c1ccc(Cl)cc1` [Example 16, 2-(4-Chlorophenyl)-3,6-dihydroxy-5-(2-naphthyl)-1,4-benzoquinone], for which, in data set [1] (fed, 10th day), the “insulinaemia, variation compared with the controls” value is on record as −84.2%. The “glycaemia, percentage variation in relation to D0” value in data set [1] (fed, 10th day, controls +4.5%) is −60.7%. The “body weight, percentage variation in relation to D0” value in data set [1] (control group +4.9%) is given as −26.9%.
For the compound `O=C1C(O)=C(c2ccccc2)C(=O)C(O)=C1/C=C/c1ccc(F)cc1` [Example 27, 2-[(E)-2-(4-Fluorophenyl)ethenyl]-3,6-dihydroxy-5-phenyl-1,4-benzoquinone], the activation at 10 µM in data set [3] came to 87.7%. Moreover, the “activation percentage for protein kinase B (phosphorylation in relation to 50 nM insulin fixed at 100%)” value in data set [2] is given as 48.9%.
`O=C1C(O)=C(c2cccc(Cl)c2)C(=O)C(O)=C1/C=C/c1ccccc1` [Example 30, 2-(3-Chlorophenyl)-3,6-dihydroxy-5-[(E)-2-phenylethenyl]-1,4-benzoquinone]: the activation at 10 µM in data set [3] was determined as 134%.

Broadly, the melting point is the temperature of the solid-liquid transition.
